Assays:
[1] = tested on: larvae of the mustard beetle (Phaedon cochleariae); experiment: Phaedon test (PHAECO spray treatment); assay type: in vivo; conditions: foliar, 168 h, spray on Chinese cabbage leaf discs, after 7 days, read-out: effect (beetle larvae killed)
Procedure: (§1) Solvents: 78.0 parts by weight of acetone • • 1.5 parts by weight of dimethylformamide Emulsifier: 0.5 part by weight of alkylaryl polyglycol ether An appropriate preparation of active compound is prepared by mixing 1 part by weight of active compound with the stated amounts of solvent and emulsifier and diluting the concentrate with emulsifier-containing water to the desired concentration. Leaf discs of Chinese cabbage (Brassica pekinensis) are sprayed with a preparation of active compound at the desired concentration and, after they have dried, are populated with larvae of the mustard beetle (Phaedon cochleariae). After 7 days, the effect in % is determined. Here, 100% means that all of the beetle larvae have been killed; 0% means that no beetle larvae have been killed.

[2] = log P by HPLC on reversed-phase C18, LC-MS, pH 2.7, formic acid (HCOOH); assay type: physicochemical; conditions: reversed-phase C18 HPLC column; HPLC C18, pH 2.7, 0.1% aqueous formic acid/acetonitrile
Procedure: (§2) The log P values reported in the table above and in the preparation examples were determined in accordance with EEC Directive 79/831 Annex V.A8 by HPLC (High Performance Liquid Chromatography) on reversed-phase columns (C18), with the following methods: ^[b] The determination is made by LC-MS in the acid range at pH 2.7 with 0.1% aqueous formic acid and acetonitrile (containing 0.1% formic acid) as eluents; linear gradient from 10% acetonitrile to 95% acetonitrile. Calibration took place with unbranched alkan-2-ones (having 3 to 16 carbon atoms) of known log P values (log P values determined from the retention times by linear interpolation between two successive alkanones).

[3] = tested on: Boophilus microplus; experiment: Boophilus microplus test (BOOPMI injection); assay type: in vivo; conditions: Rhipicephalus microplus, 168 h; 20 μg/animal, injection into abdomen, after 7 days; read-out: activity (no fertile eggs laid)
Procedure: Solvent: Dimethyl Sulphoxide An appropriate preparation of active compound is prepared by mixing 10 mg of active compound with 0.5 ml of solvent and diluting the concentrate with solvent to the desired concentration. The solution of active compound is injected into the abdomen (Boophilus microplus) and the animals are transferred into dishes and kept in a controlled atmosphere. The activity is assessed on the basis of deposition of fertile eggs. After 7 days, the effect in % is determined. Here, 100% means that none of the ticks has laid fertile eggs.

[4] = tested on: Meloidogyne incognita; experiment: Meloidogyne incognita test (MELGIN); assay type: in vivo; conditions: 20 ppm, lettuce in sand, after 14 days
Procedure: Solvents: 78.0 parts by weight of acetone • • 1.5 parts by weight of dimethylformamide Emulsifier: 0.5 part by weight of alkylaryl polyglycol ether An appropriate preparation of active compound is prepared by mixing 1 part by weight of active compound with the stated amounts of solvent and emulsifier and diluting the concentrate with water to the desired concentration. Pots are filled with sand, solution of active compound, meloidogyne incognita egg/larvae suspension, and lettuce seeds. The lettuce seeds germinate and the plants develop. On the roots, the galls develop. After 14 days, the nematicidal effect is determined from the gall formation, in %. Here, 100% means that no galls were found; 0% means that the number of galls on the treated plants corresponds to that for the untreated control.

[5] = tested on: greenhouse red spidermite (Tetranychus urticae); experiment: Tetranychus test; OP resistant (TETRUR spray treatment), Example 3; assay type: in vivo; conditions: foliar, 144 h, spray on bean leaf discs, after 6 days, read-out: effect (mites killed)
Procedure: as §1, with “of bean (Phaseolus vulgaris) infested by all stages of the greenhouse red spidermite (Tetranychus urticae)” for “of Chinese cabbage (Brassica pekinensis)”, “desired concentration.” for “desired concentration and, after they have dried, are populated with larvae of the mustard beetle (Phaedon cochleariae).”, “After 6” for “After 7”, “the mites” for “the beetle larvae”, “no mites” for “no beetle larvae”

[6] = tested on: greenhouse red spidermite (Tetranychus urticae); experiment: Tetranychus test; OP resistant (TETRUR spray treatment), Example 5, comparison with prior art; assay type: in vivo; conditions: 20 g/ha, 6d
Procedure: as §1, with “bean (Phaseolus vulgaris) infested by all stages of the greenhouse red spidermite (Tetranychus urticae)” for “Chinese cabbage (Brassica pekinensis)”, “concentration. After” for “concentration and, after they have dried, are populated with larvae of”, “desired time,” for “mustard beetle (Phaedon cochleariae). After 7 days,”, “mites” for “beetle larvae”

[7] = log P by HPLC on reversed-phase C18, pH 2.3, phosphoric acid (H3PO4); assay type: physicochemical; conditions: reversed-phase C18 HPLC column; HPLC C18, pH 2.3, 0.1% aqueous phosphoric acid/acetonitrile
Procedure: as §2, with “^[a]” for “^[b]”, “made” for “made by LC-MS”, “2.3” for “2.7”, “phosphoric” for “formic”, “acetonitrile” for “acetonitrile (containing 0.1% formic acid)”

[8] = log P by HPLC on reversed-phase C18, eluent variant not stated; assay type: physicochemical; conditions: reversed-phase C18 HPLC column
Procedure: as §2, with “methods:” for “methods: ^[b] The determination is made by LC-MS in the acid range at pH 2.7 with 0.1% aqueous formic acid and acetonitrile (containing 0.1% formic acid) as eluents; linear gradient from 10% acetonitrile to 95% acetonitrile.”

Row | Compound | chromatographic logP [2] | chromatographic logP [7] | chromatographic logP [8] | pest or weed control at 500 g/ha [1] [%] | pest or weed control at 0.02 mg [3] [%] | nematicidal effect (gall formation) [4] [%] | pest or weed control at 100 g/ha [5] [%] | % effect after application [6] | pest or weed control at 500 g/ha [5] [%]
1 | FC(F)c1ncn(-c2ccc(Cl)c(SCC(F)(F)F)c2)n1 [I-A-9] | 3.28 |  |  | 100 | 100 | 100 | 100 |  | 
2 | Cc1cc(C)c(-n2cnc(C(F)F)n2)cc1SCC(F)(F)F [I-A-2, 3-(Difluoromethyl)-1-{2,4-dimethyl-5-[(2,2,2-trifluoroethyl)sulphanyl]phenyl}-1H-1,2,4-triazole] | 3.33 |  |  |  | 100 | 100 |  | 100 6d % | 100
3 | Cc1cc(C)c(-n2cnc(C(F)(F)F)n2)cc1SCC(F)(F)F [VI-297, reference compound] |  |  |  |  |  |  |  | 70 6d % | 
4 | Cc1cc(C)c(-n2cnc(C(F)F)n2)cc1SCC(F)F [I-A-1] | 3.02 | 3.06 |  |  | 100 |  | 100 |  | 
5 | Cc1cc(C)c([S+]([O-])CC(F)(F)F)cc1-n1cnc(C(F)F)n1 (stereo not shown) [I-A-4, 3-(Difluoromethyl)-1-{2,4-dimethyl-5-[(2,2,2-trifluoroethyl)sulphinyl]phenyl}-1H-1,2,4-triazole] | 2.19 |  |  |  | 100 | 100 | 100 |  | 
6 | Cc1cc(F)c(-n2cnc(C(F)F)n2)cc1[S+]([O-])CC(F)(F)F (stereo not shown) [I-A-15] | 2.12 |  |  | 100 |  | 90 |  |  | 100
7 | Cc1ccc(-n2cnc(C(F)F)n2)cc1[S+]([O-])CC(F)(F)F (stereo not shown) [I-A-16] | 2.1 |  |  | 100 |  | 100 | 100 |  | 

Second part, led by results:

Row | chromatographic logP [2] | chromatographic logP [7] | chromatographic logP [8] | Compound | pest or weed control at 500 g/ha [1] [%] | pest or weed control at 0.02 mg [3] [%] | nematicidal effect (gall formation) [4] [%] | pest or weed control at 100 g/ha [5] [%] | % effect after application [6] | pest or weed control at 500 g/ha [5] [%]
8 | 2.39 |  |  | [O-][S+](CC(F)(F)F)c1cc(-n2cnc(C(F)F)n2)ccc1Cl (stereo not shown) [I-A-27] | 100 | 100 | 100 | 100 |  | 
9 | 3.28 |  |  | Cc1cc(F)c(-n2cnc(C(F)F)n2)cc1SCC(F)(F)F [I-A-30] | 100 |  | 90 | 100 |  | 
10 |  |  | 1.8 | Cc1ccc(NNC(=O)C(F)F)c(C)c1 [N′-(2,4-Dimethylphenyl)-2,2-difluoroacetohydrazide] |  |  |  |  |  | 

Reference: US8632767B2, “3-[1-(3-haloalkyl)triazolyl]phenyl sulphide derivatives as acaricides and insecticides” (Bayer Intellectual Property GmbH, priority 2009, dated 2014)
